Source: publication PMC5303145 (Brain research, 2016)
Numbering of substitutions follows the chain as printed.

What was measured:
[1] = system: D97 mutant GlyR; settings: saturating concentrations of glycine or taurine
[2] = target: T1, D97R α1 GlyR (Homo sapiens, UniProt P23415, D125R); format: cell-based; settings: for average current elicited: 10 mM glycine or 100 mM taurine; for increase of maximal currents by the D97R mutation: D97R versus WT; for Imax (% of max glycine): D97R, percentage of maximal glycine current ± S.E.M.
T1 sequence (P23415 29-449 isoform P23415-2 D125R limits assumed): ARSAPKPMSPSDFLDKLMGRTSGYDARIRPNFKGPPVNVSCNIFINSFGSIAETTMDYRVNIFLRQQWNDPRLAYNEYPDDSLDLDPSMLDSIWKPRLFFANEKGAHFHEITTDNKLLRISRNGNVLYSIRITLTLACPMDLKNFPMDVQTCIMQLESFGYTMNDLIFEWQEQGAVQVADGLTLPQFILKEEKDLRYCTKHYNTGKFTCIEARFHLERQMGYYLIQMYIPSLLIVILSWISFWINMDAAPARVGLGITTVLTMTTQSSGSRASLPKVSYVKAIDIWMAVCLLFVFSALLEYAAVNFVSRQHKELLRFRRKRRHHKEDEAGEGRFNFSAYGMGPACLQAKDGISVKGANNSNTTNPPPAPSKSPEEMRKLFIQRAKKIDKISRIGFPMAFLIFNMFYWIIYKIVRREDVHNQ

[3] = system: wildtype α1 GlyR; format: cell-based, human
[4] = target: T1, D97R α1 GlyR; format: cell-based; settings: for conductance of the openings: in the presence of taurine or glycine; for Popen of clusters: saturating concentration (100 mM taurine, 10 mM glycine), 2.5 mM tricine
[5] = system: D97A α1 GlyR; settings: for Popen of clusters: D97A, saturating concentration (100 mM taurine, 10 mM glycine), 2.5 mM tricine
[6] = target: T2, human α1 glycine receptor WT (Homo sapiens, UniProt P23415); format: cell-based; settings: for average current elicited: WT GlyR, 10 mM glycine or 100 mM taurine; for Imax (% of max glycine): α1 WT, percentage of maximal glycine current ± S.E.M.
T2 sequence (P23415 29-449 isoform P23415-2 limits assumed): T1 sequence (P23415 29-449 isoform P23415-2 D125R limits assumed) with R97D

[7] = target: T3, D97E α1 GlyR (Homo sapiens, UniProt P23415, D125E); format: cell-based; settings: for average current elicited: D97E α1 GlyR, 10 mM glycine or 100 mM taurine
T3 sequence (P23415 29-449 isoform P23415-2 D125E limits assumed): T1 sequence (P23415 29-449 isoform P23415-2 D125R limits assumed) with R97E

Row | Imax (% of max glycine) [6] [%] | increase of maximal currents by the D97R mutation [2] | Imax (% of max glycine) [2] [%] | SMILES | whole-cell current [1] | maximal taurine response versus maximal glycine response ([2]; D97R GlyR, 100 mM taurine vs 10 mM glycine) | average current elicited ([2]; D97R α1 GlyR) [μA] | greater current than glycine ([2]; D97R α1 GlyR, taurine and glycine both at 300 mM) [%] | Popen [3] | conductance of the openings [4] | Popen of clusters [4] | Popen of clusters [5] | EC50 ([6]; EC50, α1 WT, whole-cell, oocytes, 2.5 mM tricine) [µM] | average current elicited [6] [μA] | average current elicited [7] [μA] | Imax (% of max glycine) ([7]; D97E, percentage of maximal glycine current ± S.E.M.) [%] | total current in patch ([5]; D97A multi-channel patch, sample tracing, 10 mM glycine) [pA]
1 | 17.3 ± 9.2 | four- to five-fold | 89 | CC(N)CC(=O)O (stereo not drawn) [β-ABA, β-aminobutyric acid] | – | – | – | – | – | – | – | – | – | – | – | – | –
2 | 15.3 ± 3.3 | four- to five-fold | 61 | CC(CN)C(=O)O (stereo not drawn) [β-AIBA, β-aminoisobutyric acid] | – | – | – | – | – | – | – | – | – | – | – | – | –
3 | – | – | – | NCC(=O)O [Glycine] | 3000–5000 nA | – | 3.68 ± 0.37 | – | – | approximately 75 pS | 0.990 ± 0.001 | 0.938 ± 0.044 | – | 27.6 ± 2.9 | 11.9 ± 2.9 | – | 84

Row | SMILES | Imax (% of max glycine) [6] [%] | increase of maximal currents by the D97R mutation [2] | Imax (% of max glycine) [2] [%] | whole-cell current [1] | maximal taurine response versus maximal glycine response ([2]; D97R GlyR, 100 mM taurine vs 10 mM glycine) | average current elicited ([2]; D97R α1 GlyR) [μA] | greater current than glycine ([2]; D97R α1 GlyR, taurine and glycine both at 300 mM) [%] | Popen [3] | conductance of the openings [4] | Popen of clusters [4] | Popen of clusters [5] | EC50 ([6]; EC50, α1 WT, whole-cell, oocytes, 2.5 mM tricine) [µM] | average current elicited [6] [μA] | average current elicited [7] [μA] | Imax (% of max glycine) ([7]; D97E, percentage of maximal glycine current ± S.E.M.) [%] | total current in patch ([5]; D97A multi-channel patch, sample tracing, 10 mM glycine) [pA]
4 | NCCS(=O)(=O)O [Taurine] | 41 ± 4.5 | – | – | 3000–5000 nA | approximately equal | 3.56 ± 0.36 | 12.7 ± 7.1 | 0.62 ± 0.06 | approximately 75 pS | 0.990 ± 0.002 | 0.987 ± 0.003 | 1960 | 11.8 ± 1.7 | 11.4 ± 2.9 | 95.6 ± 4.7 | –
